US20150250810A1, “D-TAGATOSE-BASED COMPOSITIONS AND METHODS FOR PREVENTING AND TREATING ATHEROSCLEROSIS, METABOLIC SYNDROME, AND SYMPTOMS THEREOF” (University of Kentucky Research Foundation, priority 2008, published 2015)

Experiments:
[1] = system: LDLr-/- mice; assay: Body weight and adipose tissue characteristics in hypercholesterolemic mice fed sucrose- or TAG-enriched diet for sixteen weeks; format: in vivo; details: for macrophage positive F4/80 immunostaining in adipose sections / adipocyte size: study end point; for body weight: enriched diet, sixteen weeks; for development of obesity (weight gain, adiposity, adipocyte hypertrophy): overall study conclusion
Text: Low-density lipoprotein receptor male and female mice (LDLr^-/-) that were approximately eight weeks old were fed either a standard murine diet (“control”), a diet enriched with sucrose, or a diet enriched with TAG for sixteen weeks. The diets enriched with sucrose or TAG contained equivalents amounts (g/kg) of protein, fat and carbohydrate, although due to the differences in energy content between sucrose (˜4.0 kcal/g) and TAG (˜1.5 kcal/g), the TAG-containing diet provided relatively more calories from fat and protein. Before the sixteen week feeding period, sucrose and TAG were introduced to the experimental mice gradually over a three week period, using an increasing ratio of sucrose or TAG diet to the standard murine diet. Food intake was measured for the first four weeks of the sixteen week period and the body weight of the mice was measured weekly. […] At the study end point, retroperitoneal and epidydimal fat was dissected out of the body and stored in formalin and subsequently embedded in paraffin for examination of morphology and immunostaining. Total adipose tissue mass was increased in both male and female mice fed the diet enriched with sucrose when compared to mice fed murine or TAG-enriched diets. For characterization of adipocyte morphology, adipose tissue sections were deparrafinized and stained using hematoxylin and eosin and then analyzed using Image Pro Plus 5.1 (Media Cybernetics, Silver Spring, Md.). […] Macrophage positive F4/80 immunostaining was detected in adipose section from mice fed a sucrose-enriched diet but not in those fed standard murine or TAG-enriched diets.

[2] = system: LDLr-/- mice; assay: Serum cholesterol, triglyceride and lipoprotein concentrations in diet-fed mice (enzymatic assay kits); format: in vivo; details: for total serum triglyceride concentration: end of study; for very low density lipoprotein and LDL cholesterol concentrations / total serum cholesterol concentration: male and female mice; for very low density lipoprotein and LDL cholesterol concentrations: compared to control mice; for total serum cholesterol concentration: sucrose vs standard murine and TAG diets, TAG vs sucrose-fed
Text: Low-density lipoprotein receptor male and female mice (LDLr^-/-) that were approximately eight weeks old were fed either a standard murine diet (“control”), a diet enriched with sucrose, or a diet enriched with TAG for sixteen weeks. The diets enriched with sucrose or TAG contained equivalents amounts (g/kg) of protein, fat and carbohydrate, although due to the differences in energy content between sucrose (˜4.0 kcal/g) and TAG (˜1.5 kcal/g), the TAG-containing diet provided relatively more calories from fat and protein. Before the sixteen week feeding period, sucrose and TAG were introduced to the experimental mice gradually over a three week period, using an increasing ratio of sucrose or TAG diet to the standard murine diet.
Total serum cholesterol and plasma triglyceride concentrations were determined for the individual mice at the end of the study using enzymatic assay kits (Wako Pure Chemical, Richmond, Va.).

[3] = system: LDLr-/- mice; assay: Atherosclerosis by en face lesion surface area, immunohistochemistry, infrared microscopy and Gomori Trichome staining; format: in vivo; details: for concentration of lipids in atherosclerotic lesions: infrared microscopy of aortic lesions
Text: Low-density lipoprotein receptor male and female mice (LDLr^-/-) that were approximately eight weeks old were fed either a standard murine diet (“control”), a diet enriched with sucrose, or a diet enriched with TAG for sixteen weeks. The diets enriched with sucrose or TAG contained equivalents amounts (g/kg) of protein, fat and carbohydrate, although due to the differences in energy content between sucrose (˜4.0 kcal/g) and TAG (˜1.5 kcal/g), the TAG-containing diet provided relatively more calories from fat and protein. Before the sixteen week feeding period, sucrose and TAG were introduced to the experimental mice gradually over a three week period, using an increasing ratio of sucrose or TAG diet to the standard murine diet. At the study end point, mice were exsanguinated by perfusion through the left ventricle. Aortic tissues from the heart to the […] bifurcation were dissected and fixed overnight in 4% paraformaldehyde made with phosphate buffered solution (“PBS”) and then stored in PBS. Atherosclerosis was quantified by en face analysis of lesion surface area as detailed in Henriques, T A, et al., “Orchidectomy, but not ovariectomy, regulates angiotensin II-induced vascular diseases in apolipoprotein E-deficient mice,” Endocrinology, 145: 3866-3872 (2004). Atherosclerotic lesions were quantified by two independent observers. […] Macrophage infiltration into atherosclerotic areas was assessed using immunohistochemistry staining. […] Collagen may strengthen the fibrous caps in lipid-filled atheromas, preventing rupture.

[4] = system: human patients with type 2 diabetes; assay: Six-month oral TAG dosing study, HbA1c, serum triglycerides, LDL and HDL; format: in vivo; details: for average reduction in serum triglycerides / average reduction in HbA1c from the HbA1c of the 2.5 g group: after six months; for decrease in average serum triglycerides from baseline: all TAG-consuming patients
Description: Thirty-eight human patients with type 2 diabetes were administered one of three concentrations of TAG orally with meals. […] The treatment duration was six months and patients were randomized to one of the three doses. […] Patients also had to go through an eight week run-in period in which they were on a weight-maintaining diet and a daily exercise program under the supervision of the investigator prior to receiving their TAG dose. Patients with a current or recent history of treatment with any oral or injectable anti-diabetic treatment, as well as patients having one or more episodes of severe hypoglycemia within six months prior to entry into the study, were excluded from the study. Blood samples were taken throughout the experiment and levels of HbAc1, serum triglycerides, LDLs and HDLs were measured.

[5] = humans; cited from earlier work

Row | SMILES | macrophage positive F4/80 immunostaining in adipose sections [1] | body weight ([1]; female LDLr-/- mice) | adipocyte size ([1]; female mice) | body weight ([1]; male LDLr-/- mice) | adipocyte size ([1]; male mice) | development of obesity (weight gain, adiposity, adipocyte hypertrophy) [1] | total serum triglyceride concentration ([2]; female mice) | very low density lipoprotein and LDL cholesterol concentrations [2] | total serum cholesterol concentration [2] | total serum triglyceride concentration ([2]; male mice) | concentration of lipids in atherosclerotic lesions [3] | also measured
1 | OC[C@H]1O[C@@](CO)(O[C@H]2O[C@H](CO)[C@@H](O)[C@H](O)[C@H]2O)[C@@H](O)[C@@H]1O [sucrose, reference compound] | detected | 31 ± 1 g | 50±1 μm | 40 ± 2 g | 83±3 μm | promotes the development of obesity | 326 ± 37 mg/dL | significantly elevated | markedly increased | 822 ± 148 mg/dL | highest concentration | total adipose tissue mass ([1]; male and female mice, compared to murine or TAG-enriched diets): increased; macrophage infiltration and lesion size in aortic roots ([3]; immunohistochemistry, compared to TAG-fed mice): larger degree of macrophage infiltration and larger lesions; number and size of atherosclerotic lesions in aortic roots ([3]; male and female mice, compared to TAG-fed mice): greater number and size; atherosclerotic surface area ([3]; male and female mice, compared to control and TAG-enriched diet): striking increase
2 | O=C(CO)[C@@H](O)[C@@H](O)[C@H](O)CO [TAG, (3S,4S,5R)-1,3,4,5,6-pentahydroxy-hexan-2-one] | not | 24 ± 1 g | 31±1 μm | 27 ± 0 g | 79±3 μm | did not promote substantial weight gain, enhanced adiposity or adipocyte hypertrophy | 54 ± 8 mg/dL | only slightly elevated | decreased | 162 ± 29 mg/dL | intermediate amount | average improvement of LDL:HDL ratio ([4]; 2.5 g and 5 g groups): 0.3; average reduction in serum triglycerides ([4]; 2.5 g group): 22.2 mg/dL; decrease in LDL levels ([4]; 2.5 g group, end of the first month): about 12.3 mg/dl; average reduction in HbA1c from the HbA1c of the 2.5 g group ([4]; 5 g group): 0.05%; average reduction in serum triglycerides ([4]; 5 g group): 96.8 mg/dL; decrease in LDL levels ([4]; 5 g group, end of the first month): about 23.8 mg/dl; average reduction in HbA1c from the HbA1c of the 2.5 g group ([4]; 7.5 g group): 0.3%; average reduction in serum triglycerides ([4]; 7.5 g group): 2.8 mg/dL; decrease in average serum triglycerides from baseline ([4]; end of six months): about 41 mg/dl; decrease in average serum triglycerides from baseline ([4]; end of the first month): about 59 mg/dl; average decrease in serum LDL ([4]; all patients, end of the first month): about 13 mg/dl; serum HDL change ([4]; end of the first month): essentially unchanged; fraction of ingested substance absorbed into the bloodstream [5]: about 25%; concentration of collagen in atherosclerotic lesions ([3]; Gomori Trichome staining, compared to sucrose-fed mice): higher concentration; rate of atherosclerosis compared to control mice ([3]; female mice): slightly higher; amount of atherosclerosis compared to control mice ([3]; male mice): did not exhibit a significantly different amount
